The numbers were not newly measured in US20030013726A1 (priority 2000, published 2003), which cites them from elsewhere.

This data set deals with patients with disorders of initiating sleep.

For the molecule `CCN(C(C)=O)c1cccc(-c2ccnc3c(C#N)cnn23)c1` [zaleplon], for the setting “clinical studies”, the “sleep stages 3 and 4 (delta sleep and deep sleep)” value is listed as “not impaired”. Besides, for the setting “clinical study on more than 3 700 patients in the USA, Canada and Europe, including elderly people 65-85 years”, the “effectiveness for patients with disorders of initiating sleep” value was “very effective”. For the same molecule, the “sleep latency estimated both by polysomnography and subjectively” value (compared with placebo, clinical studies) is reported as “significantly reduced”.
